30 compounds from US12473284B2, “Small molecule inhibitors of ULK1” (Memorial Sloan Kettering Cancer Center, priority 2019, dated 2025) can be followed below.

ULK1/Atg13 kinase complex, sequence (O75385 whole entry): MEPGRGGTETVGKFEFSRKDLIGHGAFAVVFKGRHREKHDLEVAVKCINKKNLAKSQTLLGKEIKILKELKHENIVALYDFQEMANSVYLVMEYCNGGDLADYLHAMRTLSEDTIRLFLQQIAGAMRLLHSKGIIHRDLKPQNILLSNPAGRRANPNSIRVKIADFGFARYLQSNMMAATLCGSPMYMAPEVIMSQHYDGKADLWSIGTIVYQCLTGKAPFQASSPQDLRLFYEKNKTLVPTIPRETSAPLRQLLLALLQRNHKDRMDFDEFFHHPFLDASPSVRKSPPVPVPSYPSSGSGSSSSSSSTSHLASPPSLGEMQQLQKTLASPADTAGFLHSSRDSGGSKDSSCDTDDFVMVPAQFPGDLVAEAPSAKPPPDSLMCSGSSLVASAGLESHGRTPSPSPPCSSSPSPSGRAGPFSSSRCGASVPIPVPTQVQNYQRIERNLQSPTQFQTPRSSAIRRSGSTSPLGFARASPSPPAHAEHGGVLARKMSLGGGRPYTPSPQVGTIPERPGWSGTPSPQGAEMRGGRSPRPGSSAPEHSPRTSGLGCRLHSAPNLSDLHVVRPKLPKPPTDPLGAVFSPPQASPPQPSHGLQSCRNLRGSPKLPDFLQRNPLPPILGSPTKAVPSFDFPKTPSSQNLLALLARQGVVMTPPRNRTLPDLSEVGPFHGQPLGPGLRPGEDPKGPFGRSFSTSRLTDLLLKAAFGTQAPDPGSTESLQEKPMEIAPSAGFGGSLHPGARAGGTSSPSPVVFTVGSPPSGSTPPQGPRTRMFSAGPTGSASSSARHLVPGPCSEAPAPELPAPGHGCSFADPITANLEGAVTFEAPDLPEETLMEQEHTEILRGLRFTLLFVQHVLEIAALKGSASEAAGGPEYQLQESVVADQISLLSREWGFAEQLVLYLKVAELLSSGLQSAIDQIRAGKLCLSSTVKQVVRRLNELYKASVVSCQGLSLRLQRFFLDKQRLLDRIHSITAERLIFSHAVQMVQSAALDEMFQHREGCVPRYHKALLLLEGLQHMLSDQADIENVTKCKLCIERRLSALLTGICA
ULK1/Atg13 kinase complex, sequence (O75143 whole entry partner): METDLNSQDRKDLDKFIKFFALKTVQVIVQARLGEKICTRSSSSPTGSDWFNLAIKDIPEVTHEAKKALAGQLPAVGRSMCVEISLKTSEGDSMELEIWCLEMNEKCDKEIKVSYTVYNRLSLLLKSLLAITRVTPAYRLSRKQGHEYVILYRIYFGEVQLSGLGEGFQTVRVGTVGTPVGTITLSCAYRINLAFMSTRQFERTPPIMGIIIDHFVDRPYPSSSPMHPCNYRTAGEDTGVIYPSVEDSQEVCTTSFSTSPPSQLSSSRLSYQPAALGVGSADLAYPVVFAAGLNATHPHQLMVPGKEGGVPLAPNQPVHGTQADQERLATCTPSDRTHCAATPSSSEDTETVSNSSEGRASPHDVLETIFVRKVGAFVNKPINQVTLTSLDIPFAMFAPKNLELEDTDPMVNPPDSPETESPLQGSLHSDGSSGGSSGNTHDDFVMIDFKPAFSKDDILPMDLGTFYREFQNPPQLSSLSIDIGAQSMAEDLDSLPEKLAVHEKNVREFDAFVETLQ
protein kinase CDK7, sequence (P50613 whole entry): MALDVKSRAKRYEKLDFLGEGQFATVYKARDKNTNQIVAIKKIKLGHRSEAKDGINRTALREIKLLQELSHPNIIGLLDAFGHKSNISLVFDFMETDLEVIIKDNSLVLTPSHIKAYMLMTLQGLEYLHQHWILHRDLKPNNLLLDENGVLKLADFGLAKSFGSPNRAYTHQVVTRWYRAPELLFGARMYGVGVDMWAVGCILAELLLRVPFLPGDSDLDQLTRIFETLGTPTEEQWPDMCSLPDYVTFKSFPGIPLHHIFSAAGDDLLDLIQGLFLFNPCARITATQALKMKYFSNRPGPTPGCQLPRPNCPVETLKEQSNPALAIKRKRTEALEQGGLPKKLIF
protein kinase CDK7, sequence (P51946 whole entry partner): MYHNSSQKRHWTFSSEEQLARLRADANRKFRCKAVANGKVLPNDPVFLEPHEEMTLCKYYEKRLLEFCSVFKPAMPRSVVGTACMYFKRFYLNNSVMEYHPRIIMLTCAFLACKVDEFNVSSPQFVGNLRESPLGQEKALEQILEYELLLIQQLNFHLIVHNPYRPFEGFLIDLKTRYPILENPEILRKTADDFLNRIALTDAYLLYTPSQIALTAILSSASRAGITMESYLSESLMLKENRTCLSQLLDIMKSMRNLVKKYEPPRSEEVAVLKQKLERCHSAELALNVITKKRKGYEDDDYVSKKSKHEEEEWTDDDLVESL
protein kinase CDK7, sequence (P51948 whole entry partner): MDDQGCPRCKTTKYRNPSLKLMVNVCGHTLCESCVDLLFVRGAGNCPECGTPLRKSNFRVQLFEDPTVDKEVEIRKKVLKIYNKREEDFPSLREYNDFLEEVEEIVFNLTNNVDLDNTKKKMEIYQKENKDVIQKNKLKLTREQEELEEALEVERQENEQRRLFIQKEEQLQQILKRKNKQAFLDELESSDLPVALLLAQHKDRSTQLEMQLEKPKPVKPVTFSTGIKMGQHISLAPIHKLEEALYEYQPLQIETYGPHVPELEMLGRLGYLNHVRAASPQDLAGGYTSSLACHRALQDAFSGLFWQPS

One assay concerns the target protein kinase CDK7 (Homo sapiens (Human), UniProt P50613). Put plainly: Inhibition of protein kinase CDK7. In kind it is biochemical.
Conditions: not given
Take `CC(N)C1CCC(C(=O)Cc2ccnc3[nH]c(-c4ccc(F)cc4)cc23)CC1` (stereo not shown) [MSK-A184]: the “inhibition of protein kinase CDK7 (potency)” value (from here on “inhibition”) is recorded as “low nM potency”.

For the compound `CC(N)C1CCC(C(=O)Nc2ccnc3[nH]c(-c4ccsc4)cc23)CC1` (stereo not shown) [MSK-A176], the “inhibition” value is “low nM potency”.

With `CC(N)C1CCC(C(=O)Cc2ccnc3[nH]c(-c4cccc(F)c4)cc23)CC1` (stereo not shown) [MSK-A191], the “inhibition” value was “low nM potency”.

Consider `CC(N)C1CCC(C(=O)Cc2ccnc3[nH]c(-c4ccc(C#N)cc4)cc23)CC1` (stereo not shown) [MSK-A189], for which the “inhibition” value is reported as “low nM potency”.

A further assay relates to MiaCaPa-2 cancer cells. Kind of assay: MiaCaPa-2 pancreatic ductal adenocarcinoma (PDAC) cell line xenograft mice model. In kind it is in vivo. The following applies: MSK-A170-PEAK2 10 mg/kg + trametinib 0.5 mg/kg, i.p., 6 days a week, 17 days, female athymic nude mice. The method, then: FIG. 1 illustrates the final tumor weights for four groups on mice in a MiaCaPa-2 cell line xenograft mouse model, where “Control” group mice were treated 6 days a week, i.p., for 17 days with dosing vehicle; “ULK1i” group mice were treated 6 days a week, i.p., for 17 days with a compound of the present technology, 10 mg/kg; “MEKi” group mice were treated 6 days a week, i.p., for 17 days with MEK1 inhibitor trametinib, 0.5 mg/kg; “ULK1i+MEKi” group mice were treated 6 days a week, i.p., for 17 days with a combination of the compound of the present technology (10 mg/kg) and trametinib (0.5 mg/kg), according to the working examples.
FIG. 2 provides the tumor volume over time for each group of the xenograft mouse model study that provided the data of FIG. 1, according to the working examples.
Female athymic nude (Foxn1^nu) mice were implanted with 2×10^6 MiaCaPa-2 cancer cells per animal subcutaneously at the right flank. […] The tumor volume was measured on 1, 3, 5, 7, 9, 11, 13, 15, and 17. […]
With `C[C@@H](N)C1CCC(C(=O)Nc2ccnc3[nH]c(-c4ccccc4)cc23)CC1` (single isomer, unassigned) [MSK-A170-PEAK2], the “tumor weight / tumor volume, combination with trametinib versus trametinib alone” value is listed as “significantly improved results”.

A further assay addresses ULK1/Atg13 kinase complex (Homo sapiens (Human), UniProt O75385). Kind of assay: In vitro kinase assay (Kinase-Glo Plus luminescence, MBP 1-20 peptide substrate). The assay is classed as biochemical. The settings on record: recombinant His-tagged ULK1/Atg13, 75 min at room temperature; salt form as in Table 1. The method, then:
In vitro kinase assays were performed as described below:
Recombinant His-tagged ULK1/Atg13 kinase complex was expressed in […] insect cells, and affinity-purified by Ni-NTA beads, aliquoted and stored at −80° C.
Compounds were dissolved in DMSO to make 10 mM stock solution, aliquoted and stored at −80° C.
1× kinase buffer was prepared: 20 mM Tris-HCl, pH7.5, 100 mM NaCl, 5 mM MgCl2, 0.5 mg/ml BSA, 5 mM DTT, 0.1% Tween-20.
For compound screening experiment, 1 μl of the 10 mM compound stock solution was added using P2.5 pipette into 99 μl 1×kinase buffer to make 100 μM working solution.
For compound titration experiment, 100 μM compound solution was further diluted (with 1×kinase buffer containing 1% DMSO) in a series manner.
30 mM MBP (Myelin basic protein) 1-20 peptide (sequence: […]; SEQ ID NO: 1) was prepared in 1× kinase buffer.
500 μM ATP was prepared in 1× kinase buffer.
Pre-incubation reactions were set up as shown in the Table below and pre-incubated for 10 min at room temperature.
4 μl of 500 μM ATP was added to the pre-incubation reaction (thus the final reaction volume is 20 μl) and incubated for 75 min at room temperature.
20 μl Kinase-Glo Plus (Promega) was added to the reaction (warmed to RT), mixed well and incubated at room temperature for 15 min.
20 μl reaction was pipetted into each well of a white 384-well plate.
the 384-well plate was subjected to brief centrifugation, and luminescence was read in a plate reader.
Calculated inhibition (%) was calculated as follows: […]
On the technique in general: Kinase-Glo measures the ATP left after a reaction by luminescence.
A word on the IC50: it is the point on the concentration scale where inhibition reaches its midpoint. Regarding `CC(N)C1CCC(C(=O)Cc2ccnc3[nH]c(-c4ccc(F)cc4)cc23)CC1` (stereo not shown) [MSK-A184], the IC50 is 0.0189 µM.

On to `COc1ccc(-c2cc3c(CC(=O)C4CCC(C(C)N)CC4)ccnc3[nH]2)cc1` (stereo not shown) [MSK-A188], for which the IC50 worked out at 0.0194 µM.

For the compound `CC(N)C1CCC(C(=O)Nc2ccnc3[nH]c(-n4cccn4)cc23)CC1` (stereo not shown) [MSK-A173, (1r,4r)-N-(2-(1H-pyrazol-1-yl)-1H-pyrrolo[2,3-b]pyridin-4-yl)-4-(1-aminoethyl)cyclohexanecarboxamide], the IC50 was determined as 0.63 µM.

Consider `Cc1cccc(-c2cc3c(CC(=O)C4CCC(C(C)N)CC4)ccnc3[nH]2)c1` (stereo not shown) [MSK-A192], for which the IC50 was 0.0202 µM.

`CC(N)C1CCC(C(=O)Nc2ccnc3[nH]c(-c4ccc(F)cc4)cc23)CC1` (single isomer, unassigned) [MSK-A184_peak 2, (1r,4r)-4-(1-aminoethyl)-N-(2-(4-fluorophenyl)-1H-pyrrolo[2,3-b]pyridin-4-yl)cyclohexanecarboxamide]: the IC50 was found to be 0.0389 µM.

In the case of `CC(N)C1CCC(C(=O)Nc2ccnc3[nH]c(-c4ncco4)cc23)CC1` (stereo not shown) [MSK-A202], the concentration for half-maximal inhibition (IC50) stood at 0.156 µM.

Regarding `CC(N)C1CCC(C(=O)Nc2ccnc3[nH]c(-c4ccsc4)cc23)CC1` (stereo not shown) [MSK-A176], the 50% inhibitory concentration (IC50) was 0.005 µM.

Regarding `CC(N)C1CCC(C(=O)Nc2ccnc3[nH]c(-c4ccsc4)cc23)CC1` (single isomer, unassigned) [MSK-A176-peak 1, (1r,4r)-4-(1-aminoethyl)-N-(2-(thiophen-3-yl)-1H-pyrrolo[2,3-b]pyridin-4-yl)cyclohexanecarboxamide], the half-inhibitory concentration (IC50) was determined as 0.0562 µM.

Consider `CC(N)C1CCC(C(=O)Nc2ccnc3[nH]c(-c4ccc5ccccc5c4)cc23)CC1` (stereo not shown) [MSK-A190], for which the IC50 came out at 0.0238 µM.

In the case of `CC(N)C1CCC(C(=O)Nc2ccnc3[nH]c(-c4nccs4)cc23)CC1` (stereo not shown) [MSK-A178], the concentration for half-maximal inhibition (IC50) was determined as 0.047 µM.

As for `CC(N)C1CCC(C(=O)Nc2ccnc3[nH]c(-c4cscn4)cc23)CC1` (stereo not shown) [MSK-A199], the half-inhibitory concentration (IC50) turned out to be 0.109 µM.

As for `CC(N)C1CCC(C(=O)Nc2ccnc3[nH]c(-c4ccc(F)cc4)cc23)CC1` (single isomer, unassigned) [MSK-A184_peak 1, (1r,4r)-4-(1-aminoethyl)-N-(2-(4-fluorophenyl)-1H-pyrrolo[2,3-b]pyridin-4-yl)cyclohexanecarboxamide], the IC50 was 0.0155 µM.

With `CC(N)C1CCC(C(=O)Nc2ccnc3[nH]c(-c4ncc[nH]4)cc23)CC1` (stereo not shown) [MSK-A157, (1r,4r)-N-(2-(1H-imidazol-2-yl)-1H-pyrrolo[2,3-b]pyridin-4-yl)-4-(1-aminoethyl)cyclohexanecarboxamide], the IC50 is 0.073 µM.

`CC(N)C1CCC(C(=O)Cc2ccnc3[nH]c(-c4cccc(C(F)(F)F)c4)cc23)CC1` (stereo not shown) [MSK-A194]: the IC50 was determined as 0.0292 µM.

`CC(N)C1CCC(C(=O)Nc2ccnc3[nH]c(-c4nccn4C)cc23)CC1` (stereo not shown) [MSK-A171, (1r,4r)-4-(1-aminoethyl)-N-(2-(1-methyl-1H-imidazol-2-yl)-1H-pyrrolo[2,3-b]pyridin-4-yl)cyclohexanecarboxamide]: the 50% inhibitory concentration (IC50) was 1.45 µM.

Consider `C[C@@H](N)C1CCC(C(=O)Nc2ccnc3occc23)CC1` (stereo partly shown) [MSK-A091, (1r,4r)-4-(1-aminoethyl)-N-(furo[2,3-b]pyridin-4-yl)cyclohexanecarboxamide], for which the IC50 is 2.2 µM.

As to `CC(N)C1CCC(C(=O)Cc2ccnc3[nH]c(-c4cccc(F)c4)cc23)CC1` (stereo not shown) [MSK-A191], the IC50 came out at 0.0206 µM.

Turning to `CC(N)C1CCC(C(=O)Nc2ccnc3[nH]c(-c4cccs4)cc23)CC1` (stereo not shown) [MSK-A177], the half-maximal inhibitory concentration (IC50) is 0.054 µM.

As to `CC(N)C1CCC(C(=O)Nc2ccnc3[nH]c(-c4ncccn4)cc23)CC1` (stereo not shown) [MSK-A180], the IC50 was found to be 2.38 µM.

As for `CC(N)C1CCC(C(=O)Nc2ccnc3[nH]c(-n4ccnc4)cc23)CC1` (stereo not shown) [MSK-A181, (1r,4r)-N-(2-(1H-imidazol-1-yl)-1H-pyrrolo[2,3-b]pyridin-4-yl)-4-(1-aminoethyl)cyclohexanecarboxamide], the IC50 is 0.515 µM.

Take `C[C@@H](N)C1CCC(C(=O)Nc2ccnc3[nH]c(-c4ccccn4)cc23)CC1` (stereo partly shown) [MSK-A172, (1r,4r)-4-(1-aminoethyl)-N-(2-(pyridin-2-yl)-1H-pyrrolo [2,3-b]pyridin-4-yl)cyclohexanecarboxamide]: the IC50 amounted to 0.11 µM.

On to `CC(N)C1CCC(C(=O)Cc2ccnc3[nH]c(-c4ccc(C#N)cc4)cc23)CC1` (stereo not shown) [MSK-A189], for which the IC50 came out at 0.0183 µM.

For `COC(=O)[C@@H](N)[C@H]1CC[C@H](C(=O)Nc2ccnc3[nH]c(-c4ccccc4)cc23)CC1` [MSK-A182, (S)-methyl 2-amino-2-((1r,4S)-4-((2-phenyl-1H-pyrrolo[2,3-b]pyridin-4-yl)carbamoyl)cyclo-hexyl)acetate], the IC50 stood at 0.0229 µM.

Turning to `C[C@@H](N)C1CCC(C(=O)Nc2ccnc3[nH]c(-c4ccccc4)cc23)CC1` (stereo partly shown) [MSK-A170, (1r,4r)-4-(1-aminoethyl)-N-(2-phenyl-1H-pyrrolo[2,3-b]pyridin-4-yl)cyclohexanecarboxamide], the IC50 is 0.018 µM.

For the compound `CC(N)C1CCC(C(=O)Nc2ccnc3[nH]c(-c4cccc(F)c4)cc23)CC1` (single isomer, unassigned) [MSK-A191_peak 1, (1r,4r)-4-(1-aminoethyl)-N-(2-(3-fluorophenyl)-1H-pyrrolo[2,3-b]pyridin-4-yl)cyclohexanecarboxamide], the IC50 was 0.0408 µM.

Turning to `CC(N)C1CCC(C(=O)Cc2ccnc3[nH]c(-c4cccc(C5CC5)c4)cc23)CC1` (stereo not shown) [MSK-A193], the concentration for half-maximal inhibition (IC50) amounted to 0.0263 µM.

For the compound `CC(N)C1CCC(C(=O)Nc2ccnc3[nH]c(-c4ccsc4)cc23)CC1` (single isomer, unassigned) [MSK-A176-peak 2, (1r,4r)-4-(1-aminoethyl)-N-(2-(thiophen-3-yl)-1H-pyrrolo[2,3-b]pyridin-4-yl)cyclohexanecarboxamide], the IC50 is 0.0236 µM.

In the case of `CC(N)C1CCC(C(=O)Nc2ccnc3[nH]c(-c4cccc(F)c4)cc23)CC1` (single isomer, unassigned) [MSK-A191_peak 2, (1r,4r)-4-(1-aminoethyl)-N-(2-(3-fluorophenyl)-1H-pyrrolo[2,3-b]pyridin-4-yl)cyclohexanecarboxamide], the IC50 turned out to be 0.0591 µM.

On to `COC(=O)[C@H](N)[C@H]1CC[C@H](C(=O)Nc2ccnc3[nH]c(-c4ccccc4)cc23)CC1` [MSK-A183, (R)-methyl 2-amino-2-((1r,4R)-4-((2-phenyl-1H-pyrrolo[2,3-b]pyridin-4-yl)carbamoyl)cyclo-hexyl)acetate], for which the concentration for half-maximal inhibition (IC50) came out at 0.185 µM.
